In patent publication US9427426B2 (priority 2008, dated 2016):

Legend:
[1] = tested on: rats intoxicated with lead (lead acetate); assay: Example 1: erdosteine per os vs NAC per os in rats intoxicated with lead; assay type: in vivo, Wistar rats; conditions: erdosteine 875 mg/kg or NAC 500 mg/kg per os once a day for 7 days
Method: (§1) 3. […] NAC has been mixed with bidistilled water, the resulting solution being administered in volume of 10 ml/kg.
(§2) 4. […] Erdosteine has been mixed with bidistilled water and sodium hydrogen carbonate equimolar, the resulting solution being administered in volume of 10 ml/kg.
(§3) Mortality has been recorded. […] Few animals have been collected urine eliminated spontaneously for Pb—Hg analysis. Animals have been sacrificed under general anesthesia with ether. 6 animals of each group (3 males and 3 females) have been randomly selected for macroscopic and microscopic anatomic-pathological examination.

[2] = tested on: rats intoxicated with mercury (mercury chloride); assay: Example 1: erdosteine per os vs NAC per os in rats intoxicated with mercury; assay type: in vivo, Wistar rats; conditions: erdosteine 875 mg/kg or NAC 500 mg/kg per os once a day for 7 days
Method: as §1, §2, §3

[3] = tested on: rats intoxicated with lead (lead acetate); assay: Example 2: erdosteine i.v. vs NAC i.v. in rats intoxicated with lead; assay type: in vivo, Wistar rats; conditions: for Mortalitaty total / Mortality in percent: Pb intoxicated (lead acetate 4665 mg/kg per os), 35 animals/lot; for Anatomical pathology: lesions / Pb in urine, Pb mean values / Creatinine mean values / Haematocrit mean values / Haemoglobin mean values / Leucocytes mean values / Urea mean values / Uric acid mean value / erythrocytes mean values: Pb intoxicated; for Creatinine mean values / Haematocrit mean values / Haemoglobin mean values / Leucocytes mean values / Urea mean values / Uric acid mean value / erythrocytes mean values: survivors after 7 days
Method: (§4) The animals have been randomly divided in 11 lots.
(§5) 3. […] NAC has been dissolved in bidistilled water.
(§6) 4. […] Erdosteine has been solubilized in bidistilled water and sodium hydrogen carbonate equimolar, the resulting solution being administered in volume of 10 ml/kg. Preliminarily we tested the different molar ratios erdosteine/sodium hydrogen carbonate in a range between 0.5:1 and 1.5:1 and the volume to be solubilized. […] Animals Monitoring:
as §3

[4] = tested on: rats intoxicated with mercury (mercury chloride); assay: Example 2: erdosteine i.v. vs NAC i.v. in rats intoxicated with mercury; assay type: in vivo, Wistar rats; conditions: for Mortalitaty total / Mortality in percent: Hg intoxicated (mercury chloride 42 mg/kg per os), 35 animals/lot; for Anatomical pathology: lesions / Hg in urine mean values / Creatinine mean values / Haematocrit mean values / Haemoglobin mean values / Leucocytes mean values / Urea mean values / Uric acid mean value / erythrocytes mean values: Hg intoxicated; for Creatinine mean values / Haematocrit mean values / Haemoglobin mean values / Leucocytes mean values / Urea mean values / Uric acid mean value / erythrocytes mean values: survivors after 7 days
Method: as §4, §5, §6, §3

[5] = Example 2: erdosteine toxicity i.v. (lot 11); assay type: in vivo, Wistar rats; conditions: both sexes, Wistar, in vivo, iv, 3500 mg/kg; rat, i.v.; read-out: LD50 of i.v. form of erdosteine
Excerpt: (§7) These lots have been evaluated only for mortality.

rats = assay: Example 2: erdosteine toxicity i.v. (lot 11); assay type: in vivo, Wistar rats; conditions: erdosteine 3500 mg/kg i.v. slowly; 10 animals, not metal intoxicated
Excerpt: as §7

[6] = water (NAC: at 20° C.); cited from earlier work
[7] = Pb intoxicated (lead acetate 4665 mg/kg per os), 30 animals/lot
[8] = survivors after 7 days, Pb intoxicated
[9] = Hg intoxicated (mercury chloride 42 mg/kg per os), 30 animals/lot
[10] = survivors after 7 days, Hg intoxicated
[11] = ERDO1 = erdosteine 350 mg/kg i.v. or NAC 114 mg/kg i.v. once a day for 7 days
[12] = ERDO2 = erdosteine 175 mg/kg i.v. once a day for 7 days
[13] = ERDO1 = erdosteine 350 mg/kg i.v. or NAC 114 mg/kg i.v. once a day
[14] = ERDO2 = erdosteine 175 mg/kg i.v. once a day

In the case of `O=C(O)CSCC(=O)NC1CCSC1=O` (centres unmarked) [erdosteine, Erdosteine], the Mortality in percent [1, 7] is reported as 16.6%, the Mortality total [1, 7] is reported as 5 and the “Anatomical pathology: lesions (macroscopic and microscopic examination)” value ([1]; Pb intoxicated) is reported as “less important damages”. The “Pb in urine, Pb mean values” ([1]; Pb intoxicated, GS MS Varian 4100) was 10.9 mg/L, the Creatinine mean values [1, 8] was 0.48 ^1, 2 mK/dl and the Haematocrit mean values [1, 8] was 39.41^3. The Haemoglobin mean values [1, 8] was 13.75^3 g/dl, the Leucocytes mean values [1, 8] was 7.31^3 and the Urea mean values [1, 8] was 50.93 ^1, 2 mg/dl. The “Uric acid mean value” [1, 8] was 1.90 ^3 mg/dl, the erythrocytes mean values [1, 8] was 6.82^3 *10^6/mm^3 and the Mortality in percent [2, 9] was 16.6%. For the same compound, the Mortality total [2, 9] was 5^1, the “Anatomical pathology: lesions (macroscopic and microscopic examination)” value ([2]; Hg intoxicated) was “less important lesions” and the “Hg in urine mean values” ([2]; Hg intoxicated, GS MS Varian 4100) was 14.7 mg/L. For the same compound, the Creatinine mean values [2, 10] was 0.47 ^1, 2 mK/dl, the Haematocrit mean values [2, 10] was 38.58^3 and the Haemoglobin mean values [2, 10] was 13.75^3 g/dl. The Leucocytes mean values [2, 10] was 7.81^3, the Urea mean values [2, 10] was 49.18 ^1, 2 mg/dl and the “Uric acid mean value” [2, 10] was 2.40 ^1 mg/dl. For the same compound, the erythrocytes mean values [2, 10] was 6.81^3 *10^6/mm^3, the Mortalitaty total [3, 11] was 5 ^1, 2 and the Mortality in percent [3, 11] was 14.3%. The Mortalitaty total [3, 12] was 10 ^1, 2, the Mortality in percent [3, 12] was 28.6% and the “Anatomical pathology: lesions” value [3, 11] was “less important damages”. For the same compound, the “Pb in urine, Pb mean values” [3, 11] was 15.9 mg/L, the “Anatomical pathology: lesions” value [3, 12] was “did not improve lesions” and the “Pb in urine, Pb mean values” [3, 12] was 13 mg/L. For the same compound, the Creatinine mean values [3, 13] was 0.49 ^1, 2 mK/dl, the Haematocrit mean values [3, 13] was 37.21 ^3 and the Haemoglobin mean values [3, 13] was 15.71 ^3 g/dl. For the same compound, the Leucocytes mean values [3, 13] was 11.36 ^3, the Urea mean values [3, 13] was 48.95 ^1, 2, 3 mg/dl and the “Uric acid mean value” [3, 13] was 2.28 ^4 mg/dl. For the same compound, the erythrocytes mean values [3, 13] was 7.01 ^3 *10^6/mm^3, the Creatinine mean values [3, 14] was 0.46 ^1, 2 mK/dl and the Haematocrit mean values [3, 14] was 37.7 ^3. For the same compound, the Haemoglobin mean values [3, 14] was 15.95 ^3 g/dl, the Leucocytes mean values [3, 14] was 14.35 ^3 and the Urea mean values [3, 14] was 54.4 ^1, 2 mg/dl. For the same compound, the “Uric acid mean value” [3, 14] was 1.76 ^1, 2 mg/dl, the erythrocytes mean values [3, 14] was 7.07 ^3 *10^6/mm^3 and the Mortalitaty total [4, 11] was 8 ^1, 2. For the same compound, the Mortality in percent [4, 11] was 22.6%, the Mortality in percent ([4]; ERDO1 = erdosteine 350 mg/kg i.v. or NAC 114 mg/kg i.v. once a day for 7 days, listed as ERDOI) was 22.6% and the Mortalitaty total [4, 12] was 12 ^1, 2. For the same compound, the Mortality in percent [4, 12] was 34.3%, the “Anatomical pathology: lesions” value [4, 11] was “least severe damages” and the “Hg in urine mean values” [4, 11] was 18.7 mg/L. For the same compound, the “Anatomical pathology: lesions” value [4, 12] was “less important lesions”, the “Hg in urine mean values” [4, 12] was 14.4 mg/L and the Creatinine mean values [4, 13] was 0.60 ^2 mK/dl. The Haematocrit mean values [4, 13] was 38.43 ^3, the Haemoglobin mean values [4, 13] was 15.05 ^3 g/dl and the Leucocytes mean values [4, 13] was 17.36 ^3. For the same compound, the Urea mean values [4, 13] was 50.36 ^1, 2 mg/dl, the “Uric acid mean value” [4, 13] was 2.25 ^4 mg/dl and the erythrocytes mean values [4, 13] was 6.98 ^3 *10^6/mm^3. The Creatinine mean values [4, 14] was 0.51 ^1, 2 mK/dl, the Haematocrit mean values [4, 14] was 36.83 ^3 and the Haemoglobin mean values [4, 14] was 13.86 ^J g/dl. The Leucocytes mean values [4, 14] was 8.61 ^3, the Urea mean values [4, 14] was 53.15 ^1, 2 mg/dl and the “Uric acid mean value” [4, 14] was 2.23 ^4 mg/dl. The erythrocytes mean values [4, 14] was 6.55 ^3 *10^6/mm^3, the LD50 [5] was over 3500 mg/kg and the Mortalitaty total (rats) was 1/10. The Mortality in percent (rats) was 10% and the “solubility in water, in words” value [6] was “moderately soluble”.
